{
  "source": "patent US10166239B2",
  "about": "“Tropomyosin-related kinase (Trk) inhibitors” (Genzyme Corporation, priority 2013, dated 2019)",
  "key": {"[1]": {"tested_on": "Reactivated Peptidoglycan-Polysaccharide Knee Arthritis", "assay": "Reactivated peptidoglycan-polysaccharide (PGPS) knee arthritis", "format": "in vivo, Male Lewis rats", "details": "for gait scores, second reactivation: intra-articular dose on day −7 (Triamcinolone 0.06 mg: day 15, 17, 18; test compound 1 mg: throughout second reactivation); for gait deficiency, second reactivation / gait scores and deficiency, first reactivation: intra-articular dose on day −7 (Triamcinolone 0.06 mg; test compound 1 mg); for gait deficiency, second reactivation: days 15, 17 and 18; for gait scores and deficiency, first reactivation: first reactivation (days 1-4)", "source_text": "Male Lewis rats were acclimated to the testing facility for 7 days. The rats were housed in 5 per cage in shoe-box polycarbonate cages with wire tops, wood chip bedding and suspended food and water bottles. On day −21, the male Lewis rats were randomized into treatment groups by body weight. The rats were anesthetized and injected with peptidoglycan-polysaccharide (PGPS) into the right knee to induce PGPS arthritis. Arthritis was reactivated on days 0 and 14 by an IV tail injection of PGPS. […] The rats were weighed at baseline on days 0, 4, 14 and 18. […] Gait analysis was performed by applying ink to the ventral surface of the foot and documenting weight bearing during movement across paper. The animals were terminated at day 18. Right knees were removed, trimmed of extraneous tissue, and collected into 10% neutral buffered formalin. After two days in the formalin buffer and three days in 10% formic acid decalcifier, the knees were cut into two approximately equal halves in the frontal plane and processed for paraffin embedding and stained with T. Blue. Histological examinations were subsequently performed for bone resorption, inflammation, pannus and cartilage damage. […] Gait scores were analyzed using a Kruskal-Wallis test (non-parametric ANOVA) with Dunn's multiple comparison post-test. Histopathology scores were analyzed using a Kruskal-Wallis test (non-parametric ANOVA) with Dunn's multiple comparison post-test."}, "[2]": {"tested_on": "Monosodium Iodoacetate Induced Osteoarthritis", "assay": "Monosodium iodoacetate (MIA) induced osteoarthritis", "format": "in vivo, Male Wistar rats", "source_text": "Male Wistar rats were acclimated to the testing facility for 5 days. The rats were individually housed in micro-isolator shoe-box polycarbonate cages with cob bedding and water bottles. Dry pelleted food of known composition and nutritional components was provided ad libitum Animals were randomized by treatment type using an online random number generator. Each treatment group was assigned a number, entered into the random number generator, recorded then translated back to the associated treatment. All injections were given in the left leg unless the treatment indicated “Contralateral” in which case the injection was given in the right leg. Both legs were shaved on all animals at the time of the treatment injections to blind the test administrator. The rats were weighed the day prior to injection with monosodium iodoacetate (MIA), the agent used to induce osteoarthritis in the animals. The day of injection, rats from groups 2-8 received a subcutaneous (SC) dose of buprenorphine at least one hour prior to induction. […] Naïve animals were then placed in recovery. All other animals received an injection of MIA. In animals receiving MIA, the hind leg was flexed and an injection of MIA (25 μL) was injected into the intra-articular space using a 27 gauge ½ inch needle. Standard postoperative care was performed (twice daily for 48 hours). On Day 8 the test article was administered as described above. On Days −1, 7, 14, 21, 28, and 35 post-induction, weight bearing was assessed. A weight bearing scale was utilized using a plexiglass chamber to assess the amount of weight distributed in each hind limb. The animals were acclimated to the chamber for at least 5 minutes prior to testing and the weight distribution was recorded 5 times. The animals were terminated at day 36. Both stifles were collected from each animal; the skin was removed from the joint and the patella was removed while leaving as much of the fat pad intact with the joint. The stifle was placed in the appropriate cassette with rolled gauze to secure the stifle in the cassette and then placed into 4% Paraformaldehyde. These samples were examined histologically."}, "[3]": {"details": "Triamcinolone 0.06 mg intra-articular"}},
  "data": [
    {"smiles": "COc1ccc(COc2ccc(Cn3c(N)nc4cc(-c5cnn(C)c5)cnc43)cc2OC)cc1", "note": "[Ex. 3-15, 3-(3-Methoxy-4-((4-methoxybenzyl)oxy)benzyl)-6-(1-methyl-1H-pyrazol-4-yl)-3H-imidazo[4,5-b]pyridin-2-amine]", "values": [
      {"measurement": "AUC values of knee caliper measurements", "setting": "[1]; 1 mg intra-articular", "value": "generally unaffected"},
      {"measurement": "reduction of AUC values of gait scores and deficiency, first reactivation", "setting": "[1]; 1 mg intra-articular", "value": "92-93%"},
      {"measurement": "reduction of AUC values of gait scores and deficiency, second reactivation", "setting": "[1]; 1 mg intra-articular", "value": "85-86%"},
      {"measurement": "Knee caliper measurements", "setting": "[1]; 1 mg intra-articular, day 14 (just prior to the second reactivation)", "value": "significantly reduced on day 14"},
      {"measurement": "gait scores, second reactivation", "setting": "[1]", "value": "significantly reduced throughout the second reactivation"},
      {"measurement": "gait deficiency, second reactivation", "setting": "[1]", "value": "reductions in deficiency were significant"},
      {"measurement": "gait scores and deficiency, first reactivation", "setting": "[1]", "value": "significant reductions"},
      {"measurement": "efficacy (weight bearing)", "setting": "[2]; 10 μg Contralateral injection", "value": "efficacy at 3 and 4 weeks following administration"},
      {"measurement": "efficacy (weight bearing)", "setting": "[2]; 10 μg Ipsilateral injection", "value": "efficacy was observed at 2 through 4 weeks following administration"},
      {"measurement": "efficacy (weight bearing)", "setting": "[2]; 30 μg Contralateral injection", "value": "efficacy at only the 3 week timepoint"},
      {"measurement": "efficacy (weight bearing)", "setting": "[2]; 30 μg Ipsilateral injection", "value": "effective throughout the four weeks following administration"},
      {"measurement": "systemic pain relief (weight bearing)", "setting": "[2]; 100 μg Contralateral injection, 1-4 weeks", "value": "did not show systemic pain relief at any timepoint"},
      {"measurement": "efficacy (weight bearing)", "setting": "[2]; 100 μg Ipsilateral injection", "value": "effective throughout the four weeks following administration"},
      {"measurement": "MIA/LRS compared with treatment (p<0.05)", "setting": "[2]; Ipsilateral 100 μg and 30 μg, day 35", "value": "MIA/LRS was significantly worse"},
      {"measurement": "body weight results", "setting": "[2]; intra-articular 10, 30, 100 μg on Day 8", "value": "No adverse observations"},
      {"measurement": "Histopathology of the knee joint, adverse changes", "setting": "[2]; stifles collected at day 36", "value": "no adverse changes"}
    ]},
    {"smiles": "C[C@]12C=CC(=O)C=C1CC[C@H]1[C@@H]3C[C@@H](O)[C@](O)(C(=O)CO)[C@@]3(C)C[C@H](O)[C@@]12F", "note": "[Triamcinolone, reference compound]", "values": [
      {"measurement": "reduction of AUC values of gait scores and deficiency, each reactivation calculated separately", "setting": "[1]; [3]", "value": "74-99%"},
      {"measurement": "reduction of AUC values of gait scores and deficiency, summed", "setting": "[1]; [3]", "value": "88-92%"},
      {"measurement": "reductions in the AUC of knee caliper measurements", "setting": "[1]; [3]", "value": "53-106%"},
      {"measurement": "Knee caliper measurements", "setting": "[1]; Triamcinolone 0.06 mg intra-articular, days 0, 2, 4, 16 and 18", "value": "significantly reduced"},
      {"measurement": "gait scores, second reactivation", "setting": "[1]", "value": "significantly reduced"},
      {"measurement": "gait deficiency, second reactivation", "setting": "[1]", "value": "significantly reduced"},
      {"measurement": "gait scores and deficiency, first reactivation", "setting": "[1]", "value": "significantly reduced"}
    ]}
  ]
}
